Assay results published in ChEMBL document CHEMBL5352436, “Triterpenoid pyrazines and pyridines - Synthesis, cytotoxicity, mechanism of action, preparation of prodrugs” (Eur J Med Chem, 2022).
Calls of active or inactive are those of the source. The rule behind the calls is not given here.

Key:
CCRF-CEM [1] = assay: Induction of apoptosis in human CCRF-CEM cells assessed as PARP cleavage at 1 to 5 times IC50 incubated for 24 hrs by Western blot analysis; assay type: functional, cell-based
CCRF-CEM [2] = assay: Induction of apoptosis in human CCRF-CEM cells assessed as accumulation of Bid protein expression at 1 to 5 times IC50 incubated for 24 hrs by Western blot analysis; assay type: functional, cell-based
[3] = Cytotoxicity against human MRC5 cells assessed as reduction in cell viability incubated for 72 hrs by MTS assay; assay type: toxicity, cell-based
CCRF-CEM [4] = assay: Induction of apoptosis in human CCRF-CEM cells assessed as early apoptotic cells at 5 times IC50 incubated for 24 hrs by Annexin V and propidium iodide staining based flow cytometry analysis […]; assay type: functional
[5] = Cytotoxicity against human HCT116-p53-null cells assessed as reduction in cell viability incubated for 72 hrs by MTS assay; assay type: functional, cell-based
CCRF-CEM [6] = assay: Cytotoxicity against human CCRF-CEM cells assessed as reduction in cell viability incubated for 72 hrs by MTS assay; assay type: functional, cell-based
CCRF-CEM [7] = assay: Induction of apoptosis in human CCRF-CEM cells assessed as late apoptotic cells at 1 time IC50 incubated for 24 hrs by Annexin V and propidium iodide staining based flow cytometry analysis (reference value: […]); assay type: functional
CCRF-CEM [8] = assay: Induction of apoptosis in human CCRF-CEM cells assessed as accumulation of Bax protein expression at 1 to 5 times IC50 incubated for 24 hrs by Western blot analysis; assay type: functional, cell-based
CCRF-CEM [9] = assay: Induction of apoptosis in human CCRF-CEM cells assessed as necrotic cells at 1 time IC50 incubated for 24 hrs by Annexin V and propidium iodide staining based flow cytometry analysis (reference value: 0.0%); assay type: functional
CCRF-CEM [10] = assay: Induction of apoptosis in human CCRF-CEM cells assessed as necrotic cells at 5 times IC50 incubated for 24 hrs by Annexin V and propidium iodide staining based flow cytometry analysis […]; assay type: functional
U2OS = assay: Cytotoxicity against human U2OS cells assessed as reduction in cell viability incubated for 72 hrs by MTS assay; assay type: functional, cell-based
CCRF-CEM [11] = assay: Induction of apoptosis in human CCRF-CEM cells assessed as increase in Noxa expression at 1 to 5 times IC50 incubated for 24 hrs by Western blot analysis; assay type: functional, cell-based
CCRF-CEM [12] = assay: Induction of apoptosis in human CCRF-CEM cells assessed as early apoptotic cells at 1 time IC50 incubated for 24 hrs by Annexin V and propidium iodide staining based flow cytometry analysis (reference value: […]); assay type: functional
CEM-DNR = assay: Cytotoxicity against human CEM-DNR cells assessed as reduction in cell viability incubated for 72 hrs by MTS assay; assay type: functional, cell-based
A549 = assay: Cytotoxicity against human A549 cells assessed as reduction in cell viability incubated for 72 hrs by MTS assay; assay type: functional, cell-based; conditions: A549, 72 h
[13] = Cytotoxicity against human BJ cells assessed as reduction in cell viability incubated for 72 hrs by MTS assay; assay type: toxicity, cell-based
CCRF-CEM [14] = assay: Induction of apoptosis in human CCRF-CEM cells assessed as viable cells at 1 time IC50 incubated for 24 hrs by Annexin V and propidium iodide staining based flow cytometry analysis […]; assay type: functional
CCRF-CEM [15] = assay: Induction of apoptosis in human CCRF-CEM cells assessed as viable cells at 5 times IC50 incubated for 24 hrs by Annexin V and propidium iodide staining based flow cytometry analysis […]; assay type: functional
K562 = assay: Cytotoxicity against human K562 cells assessed as reduction in cell viability incubated for 72 hrs by MTS assay; assay type: functional, cell-based; conditions: K562, 72 h
CCRF-CEM [16] = assay: Induction of apoptosis in human CCRF-CEM cells assessed as late apoptotic cells at 5 times IC50 incubated for 24 hrs by Annexin V and propidium iodide staining based flow cytometry analysis […]; assay type: functional
[17] = Cytotoxicity against human K562-Tax cells assessed as reduction in cell viability incubated for 72 hrs by MTS assay; assay type: functional, cell-based
HCT-116 = assay: Cytotoxicity against human HCT-116 cells assessed as reduction in cell viability incubated for 72 hrs by MTS assay; assay type: functional, cell-based; conditions: HCT-116, 72 h
[18] = Apparent permeability of the compound in MDCK-MDR1 cells at 10 uM incubated for 1 hr by RF-MS analysis; assay type: ADME, cell-based, Canis lupus familiaris; conditions: dog
[19] = Stability in human liver microsomes assessed as compound remaining at 2 uM measured at 60 mins in presence of NADPH by RF-MS analysis; assay type: ADME, Microsome; conditions: read-out: Stability
[20] = Efflux ratio of apparent permeability across basolateral to apical side over apical to basolateral side in MDCK-MDR1 cells; assay type: ADME, cell-based, Canis lupus familiaris; conditions: dog
[21] = Chemical stability in PBS buffer at pH 7.4 assessed as compound remaining measured at 120 mins by RF-MS analysis; assay type: physicochemical; conditions: read-out: Stability
[22] = Plasma protein binding in human at 10 uM by rapid equilibrium dialysis based RF-MS analysis; assay type: ADME, cell-free; conditions: read-out: PB (converted)
[23] = Stability in human plasma assessed as compound remaining at 2 uM measured at 120 mins by RF-MS analysis; assay type: ADME, cell-free; conditions: read-out: Stability
[24] = Stability in human plasma assessed as compound remaining at 2 uM measured at 15 mins by RF-MS analysis; assay type: ADME, cell-free; conditions: read-out: Stability
[25] = Stability in human plasma assessed as compound remaining at 2 uM measured at 60 mins by RF-MS analysis; assay type: ADME, cell-free; conditions: read-out: Stability
[26] = Chemical stability in PBS buffer at pH 7.4 assessed as compound remaining measured at 60 mins by RF-MS analysis; assay type: physicochemical; conditions: read-out: Stability
[27] = Stability in human plasma assessed as compound remaining at 2 uM measured at 30 mins by RF-MS analysis; assay type: ADME, cell-free; conditions: read-out: Stability
[28] = Apparent permeability of the compound in MDCK-MDR1 cells assessed as drug recovery at 10 uM incubated for 1 hr by RF-MS analysis; assay type: ADME, cell-based, Canis lupus familiaris; conditions: dog, read-out: Drug recovery
[29] = Chemical stability in PBS buffer at pH 7.4 assessed as compound remaining measured at 15 mins by RF-MS analysis; assay type: physicochemical; conditions: read-out: Stability
[30] = Chemical stability in PBS buffer at pH 7.4 assessed as compound remaining measured at 30 mins by RF-MS analysis; assay type: physicochemical; conditions: read-out: Stability
[31] = Stability in human liver microsomes assessed as compound remaining at 2 uM measured at 15 mins in presence of NADPH by RF-MS analysis; assay type: ADME, Microsome; conditions: read-out: Stability
[32] = Stability in human liver microsomes assessed as compound remaining at 2 uM measured at 30 mins in presence of NADPH by RF-MS analysis; assay type: ADME, Microsome; conditions: read-out: Stability
CCRF-CEM [33] = assay: Induction of apoptosis in human CCRF-CEM cells assessed as decrease in c-Myc expression at 1 to 5 times IC50 incubated for 24 hrs by Western blot analysis; assay type: functional, cell-based

SMILES	Activity (CCRF-CEM [1])	Activity (CCRF-CEM [2])	IC50 at 72 h [3] [µM]	Activity (CCRF-CEM [4]) [%]	IC50 [5] [µM]	IC50 (CCRF-CEM [6]) [µM]	Activity (CCRF-CEM [7]) [%]	Activity (CCRF-CEM [8])	Activity (CCRF-CEM [9]) [%]	Activity (CCRF-CEM [10]) [%]	IC50 (U2OS) [µM]	Activity (CCRF-CEM [11])	Activity (CCRF-CEM [12]) [%]	IC50 (CEM-DNR) [µM]	IC50 (A549) [µM]	IC50 at 72 h [13] [µM]	Activity (CCRF-CEM [14]) [%]	IC50 (K562) [µM]	IC50 [17] [µM]	IC50 (HCT-116) [µM]	also measured
C=C(C)[C@@H]1CC[C@]2(C(=O)OCc3oc(=O)oc3C)CC[C@]3(C)[C@H](CC[C@@H]4[C@@]5(C)CCC(=O)C(C)(C)[C@@H]5CC[C@]43C)[C@@H]12	Active	Active	47	7.1	19	2.3	1.9	Active	6.4	1.1	22	Active	2	9.1	9.5	> 50	89.8	0.87	11	21	Activity (CCRF-CEM [15]): 85.3%; Activity (CCRF-CEM [16]): 6.5%
C=C(C)[C@@H]1CC[C@]2(C(=O)OCc3cn([C@H]4O[C@H](COC(C)=O)[C@@H](OC(C)=O)[C@H](OC(C)=O)[C@H]4OC(C)=O)nn3)CC[C@]3(C)[C@H](CC[C@@H]4[C@@]5(C)CC[C@H](O)C(C)(C)[C@@H]5CC[C@]43C)[C@@H]12	–	–	> 50	–	> 50	> 50	–	–	–	–	> 50	–	–	> 50	> 50	> 50	–	> 50	> 50	> 50	Papp at 1 h, 10 µM [18]: 0.28 ×10⁻⁶ cm/s; remaining at 1 h, 2 µM [19]: 97%; efflux ratio [20]: 5.61; remaining at 2 h [21]: 77.9%; fraction unbound at 10 µM [22]: 0.0044; remaining at 2 h, 2 µM [23]: 83.4%; remaining at 0.25 h, 2 µM [24]: 94.3%; remaining at 1 h, 2 µM [25]: 87.8%; remaining at 1 h [26]: 82.3%; remaining at 0.5 h, 2 µM [27]: 92.2%; recovery at 1 h, 10 µM [28]: 77%; remaining at 0.25 h [29]: 98.5%; remaining at 0.5 h [30]: 92.7%; remaining at 0.25 h, 2 µM [31]: 99%; remaining at 0.5 h, 2 µM [32]: 98.8%
C=C(C)[C@@H]1CC[C@]2(C(=O)OCc3oc(=O)oc3C)CC[C@]3(C)[C@H](CC[C@@H]4[C@@]5(C)CC[C@H](O)C(C)(C)[C@@H]5CC[C@]43C)[C@@H]12	Active	Active	41	6.1	15	4.5	1.9	Active	8.7	6.8	19	Active	2.1	14	13	44	87.4	8.3	12	17	Activity (CCRF-CEM [33]): Active; Activity (CCRF-CEM [15]): 83.7%; Activity (CCRF-CEM [16]): 3.4%
